# According to ChEMBL document CHEMBL5465560, “Selectivity Literature for EUbOPEN Chemogenomic Library” (2024):
# Tests used:
# [1] = molecular target: Tyrosine-protein kinase JAK2 (Homo sapiens, UniProt O60674); experiment: Selectivity interaction (SelectScreen Kinase Profiling (Thermo Fisher Scientific)) EUB0001558a JAK2; conditions: at 1 µM
# [2] = molecular target: T1, Ephrin type-B receptor 1 (Homo sapiens) (UniProt P54762); experiment: Selectivity interaction (Kinase panel (Invitrogen)) EUB0000639a EPHB1; conditions: at 200 nM
# T1 sequence (whole entry): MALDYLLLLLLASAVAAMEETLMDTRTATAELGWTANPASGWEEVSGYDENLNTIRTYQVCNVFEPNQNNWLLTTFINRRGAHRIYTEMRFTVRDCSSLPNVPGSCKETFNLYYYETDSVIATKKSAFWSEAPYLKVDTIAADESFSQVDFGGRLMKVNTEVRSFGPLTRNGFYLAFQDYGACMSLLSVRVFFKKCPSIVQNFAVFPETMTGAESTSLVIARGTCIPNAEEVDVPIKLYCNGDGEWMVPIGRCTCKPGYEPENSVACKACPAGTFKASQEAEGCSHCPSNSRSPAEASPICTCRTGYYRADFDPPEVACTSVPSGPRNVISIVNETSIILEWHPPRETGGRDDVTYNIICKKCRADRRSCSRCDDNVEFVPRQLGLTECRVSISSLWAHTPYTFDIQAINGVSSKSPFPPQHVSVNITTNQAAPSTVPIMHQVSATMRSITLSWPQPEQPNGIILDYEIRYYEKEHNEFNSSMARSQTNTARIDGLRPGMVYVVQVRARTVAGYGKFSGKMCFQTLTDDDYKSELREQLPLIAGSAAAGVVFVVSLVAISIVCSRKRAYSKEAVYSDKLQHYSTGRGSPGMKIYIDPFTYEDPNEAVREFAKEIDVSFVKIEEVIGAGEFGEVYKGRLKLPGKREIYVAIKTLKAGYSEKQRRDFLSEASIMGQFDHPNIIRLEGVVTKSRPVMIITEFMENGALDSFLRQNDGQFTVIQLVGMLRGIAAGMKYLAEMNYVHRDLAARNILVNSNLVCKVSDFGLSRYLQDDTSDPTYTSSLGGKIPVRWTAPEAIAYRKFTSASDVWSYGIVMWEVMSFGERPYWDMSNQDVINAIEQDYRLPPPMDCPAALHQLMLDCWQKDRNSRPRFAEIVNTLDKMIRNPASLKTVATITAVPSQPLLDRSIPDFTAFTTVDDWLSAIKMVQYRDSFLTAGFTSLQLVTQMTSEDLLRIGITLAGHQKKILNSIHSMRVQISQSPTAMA
# [3] = molecular target: Ribosomal protein S6 kinase alpha-1 (Homo sapiens, UniProt Q15418); experiment: Selectivity interaction (ActivX KiNativ screen (kinase selectivity in THP-1 cell lysates)) EUB0000639a RPS6KA1; format: subcellular; conditions: lysate, at 1 µM
# Chain of Ribosomal protein S6 kinase alpha-1 (Q15418 whole entry): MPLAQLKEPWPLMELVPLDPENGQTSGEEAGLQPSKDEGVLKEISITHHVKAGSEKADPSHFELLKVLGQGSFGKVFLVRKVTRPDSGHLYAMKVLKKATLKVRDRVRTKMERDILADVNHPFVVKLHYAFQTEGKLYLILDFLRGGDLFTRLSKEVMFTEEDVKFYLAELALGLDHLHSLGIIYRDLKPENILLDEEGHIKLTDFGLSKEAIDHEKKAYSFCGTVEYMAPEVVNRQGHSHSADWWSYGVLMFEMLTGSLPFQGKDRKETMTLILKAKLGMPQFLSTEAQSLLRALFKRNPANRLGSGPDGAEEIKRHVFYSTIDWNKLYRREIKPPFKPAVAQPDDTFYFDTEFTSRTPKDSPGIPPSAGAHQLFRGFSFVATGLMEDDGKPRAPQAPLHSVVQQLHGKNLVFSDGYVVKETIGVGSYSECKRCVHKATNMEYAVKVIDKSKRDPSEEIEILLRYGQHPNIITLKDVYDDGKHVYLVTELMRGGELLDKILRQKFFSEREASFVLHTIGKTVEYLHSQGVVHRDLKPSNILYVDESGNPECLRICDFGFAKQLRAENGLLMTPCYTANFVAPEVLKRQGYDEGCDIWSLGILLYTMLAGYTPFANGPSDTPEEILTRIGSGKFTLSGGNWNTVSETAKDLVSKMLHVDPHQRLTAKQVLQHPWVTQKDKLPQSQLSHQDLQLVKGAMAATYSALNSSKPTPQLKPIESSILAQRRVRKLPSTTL
# [4] = molecular target: T2, Mitogen-activated protein kinase 15 (Homo sapiens) (UniProt Q8TD08); experiment: Selectivity interaction (KinomeScan (DiscoverX)) EUB0000655a MAPK15; conditions: at 10 µM
# T2 sequence (whole entry): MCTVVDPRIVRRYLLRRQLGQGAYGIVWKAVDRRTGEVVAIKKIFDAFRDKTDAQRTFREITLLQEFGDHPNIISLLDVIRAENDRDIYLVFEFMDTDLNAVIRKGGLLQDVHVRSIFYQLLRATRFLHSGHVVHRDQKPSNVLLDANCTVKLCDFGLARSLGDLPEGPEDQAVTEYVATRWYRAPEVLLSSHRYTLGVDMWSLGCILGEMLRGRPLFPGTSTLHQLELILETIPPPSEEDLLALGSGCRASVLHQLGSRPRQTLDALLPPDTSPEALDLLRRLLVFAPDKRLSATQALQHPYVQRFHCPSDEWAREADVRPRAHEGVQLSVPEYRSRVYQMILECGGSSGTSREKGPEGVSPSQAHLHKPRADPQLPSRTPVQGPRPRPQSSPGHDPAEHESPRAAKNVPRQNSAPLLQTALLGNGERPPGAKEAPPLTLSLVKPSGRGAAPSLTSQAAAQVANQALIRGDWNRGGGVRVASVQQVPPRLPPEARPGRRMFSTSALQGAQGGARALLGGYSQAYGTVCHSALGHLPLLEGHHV
# [5] = molecular target: T3, Serine/threonine-protein kinase Nek1 (Homo sapiens) (UniProt Q96PY6); experiment: Selectivity interaction (KinomeScan (DiscoverX)) EUB0000695a NEK1; conditions: at 100 nM
# T3 sequence (whole entry): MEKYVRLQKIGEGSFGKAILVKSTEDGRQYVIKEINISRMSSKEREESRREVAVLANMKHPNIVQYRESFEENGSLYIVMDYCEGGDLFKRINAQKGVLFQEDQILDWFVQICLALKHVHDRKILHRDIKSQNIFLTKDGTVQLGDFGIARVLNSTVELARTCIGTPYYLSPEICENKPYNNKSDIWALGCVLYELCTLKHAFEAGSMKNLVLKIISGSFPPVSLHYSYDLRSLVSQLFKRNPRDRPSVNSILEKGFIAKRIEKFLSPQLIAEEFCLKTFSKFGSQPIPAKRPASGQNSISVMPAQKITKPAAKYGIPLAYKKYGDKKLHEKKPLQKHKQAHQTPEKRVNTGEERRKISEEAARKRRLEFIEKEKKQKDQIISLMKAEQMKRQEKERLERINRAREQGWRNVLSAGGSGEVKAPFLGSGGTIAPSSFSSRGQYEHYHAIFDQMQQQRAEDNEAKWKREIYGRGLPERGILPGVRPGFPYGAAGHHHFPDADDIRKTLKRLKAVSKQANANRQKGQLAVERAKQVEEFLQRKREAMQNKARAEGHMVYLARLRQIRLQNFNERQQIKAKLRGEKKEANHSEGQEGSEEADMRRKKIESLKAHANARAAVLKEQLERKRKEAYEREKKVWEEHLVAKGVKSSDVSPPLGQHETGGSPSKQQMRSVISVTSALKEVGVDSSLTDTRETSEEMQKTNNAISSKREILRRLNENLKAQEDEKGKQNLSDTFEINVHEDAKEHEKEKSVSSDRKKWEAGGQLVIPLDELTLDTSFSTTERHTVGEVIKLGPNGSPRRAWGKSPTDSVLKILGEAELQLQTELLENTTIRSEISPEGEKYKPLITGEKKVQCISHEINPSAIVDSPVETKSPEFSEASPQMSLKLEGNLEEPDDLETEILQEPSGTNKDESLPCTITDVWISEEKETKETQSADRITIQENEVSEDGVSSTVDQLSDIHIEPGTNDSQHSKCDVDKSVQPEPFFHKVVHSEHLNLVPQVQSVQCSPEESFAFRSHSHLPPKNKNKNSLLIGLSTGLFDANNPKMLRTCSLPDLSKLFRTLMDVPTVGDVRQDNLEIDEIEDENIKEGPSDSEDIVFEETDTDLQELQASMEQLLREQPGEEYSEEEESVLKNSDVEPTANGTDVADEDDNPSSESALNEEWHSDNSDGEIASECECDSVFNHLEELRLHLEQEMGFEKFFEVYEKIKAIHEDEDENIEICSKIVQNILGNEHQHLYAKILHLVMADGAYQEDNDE
# SRSF protein kinase 1 = SRSF protein kinase 1 (Homo sapiens, UniProt Q96SB4); experiment: Selectivity interaction (KinomeScan (DiscoverX)) EUB0000695a SRPK1; conditions: at 100 nM
# Chain of SRSF protein kinase 1 (Q96SB4 whole entry): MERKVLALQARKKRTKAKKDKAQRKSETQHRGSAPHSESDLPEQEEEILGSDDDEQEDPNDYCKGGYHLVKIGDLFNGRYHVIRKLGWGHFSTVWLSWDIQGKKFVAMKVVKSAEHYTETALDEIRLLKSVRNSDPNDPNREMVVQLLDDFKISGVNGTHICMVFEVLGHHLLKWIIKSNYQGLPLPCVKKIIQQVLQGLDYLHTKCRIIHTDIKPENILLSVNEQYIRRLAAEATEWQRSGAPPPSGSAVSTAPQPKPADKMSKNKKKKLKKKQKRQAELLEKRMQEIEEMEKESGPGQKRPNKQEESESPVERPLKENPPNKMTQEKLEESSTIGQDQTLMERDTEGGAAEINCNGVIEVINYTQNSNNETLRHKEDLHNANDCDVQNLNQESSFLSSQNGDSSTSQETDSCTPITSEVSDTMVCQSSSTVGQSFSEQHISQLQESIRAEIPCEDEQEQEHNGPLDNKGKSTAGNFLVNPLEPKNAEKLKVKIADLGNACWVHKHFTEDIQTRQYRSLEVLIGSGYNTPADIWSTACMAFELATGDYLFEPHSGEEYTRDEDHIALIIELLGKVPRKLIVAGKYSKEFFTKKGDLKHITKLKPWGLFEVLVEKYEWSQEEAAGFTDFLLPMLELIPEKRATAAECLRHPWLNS
# Chain of Tyrosine-protein kinase JAK2 (O60674 whole entry): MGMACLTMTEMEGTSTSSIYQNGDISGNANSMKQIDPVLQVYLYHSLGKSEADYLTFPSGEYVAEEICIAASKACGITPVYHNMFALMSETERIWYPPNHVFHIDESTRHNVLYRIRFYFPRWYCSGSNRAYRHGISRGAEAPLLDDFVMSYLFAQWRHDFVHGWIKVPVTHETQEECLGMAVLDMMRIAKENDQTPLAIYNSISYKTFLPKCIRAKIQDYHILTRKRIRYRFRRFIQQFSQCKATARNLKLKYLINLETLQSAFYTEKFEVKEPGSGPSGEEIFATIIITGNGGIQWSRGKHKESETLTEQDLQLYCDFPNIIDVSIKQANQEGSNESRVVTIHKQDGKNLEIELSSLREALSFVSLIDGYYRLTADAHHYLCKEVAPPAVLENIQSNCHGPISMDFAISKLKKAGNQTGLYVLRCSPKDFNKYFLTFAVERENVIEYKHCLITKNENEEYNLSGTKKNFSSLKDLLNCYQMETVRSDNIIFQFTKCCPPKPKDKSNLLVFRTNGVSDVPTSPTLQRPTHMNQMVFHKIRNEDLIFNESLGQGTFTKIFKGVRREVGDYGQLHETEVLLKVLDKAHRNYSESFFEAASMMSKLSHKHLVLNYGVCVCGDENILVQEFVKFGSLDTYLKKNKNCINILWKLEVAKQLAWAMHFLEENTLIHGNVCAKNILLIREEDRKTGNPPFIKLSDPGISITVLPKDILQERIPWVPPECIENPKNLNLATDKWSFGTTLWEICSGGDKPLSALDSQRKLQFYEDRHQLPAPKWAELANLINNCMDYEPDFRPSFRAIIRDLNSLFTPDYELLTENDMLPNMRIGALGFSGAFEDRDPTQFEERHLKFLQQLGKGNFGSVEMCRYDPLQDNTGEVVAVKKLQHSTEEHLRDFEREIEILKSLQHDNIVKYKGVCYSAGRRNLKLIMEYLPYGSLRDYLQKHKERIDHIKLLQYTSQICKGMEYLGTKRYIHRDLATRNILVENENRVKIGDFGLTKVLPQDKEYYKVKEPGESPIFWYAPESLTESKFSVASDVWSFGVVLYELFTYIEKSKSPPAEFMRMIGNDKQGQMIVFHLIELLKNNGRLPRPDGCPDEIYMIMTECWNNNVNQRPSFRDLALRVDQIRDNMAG
smiles,measurement,setting,value
CC(C)(O)[C@H](F)CN1Cc2cc(NC(=O)c3cnn4cccnc34)c(N3CCOCC3)cc2C1=O,% of inhibition,[1],80.5%
CC[C@@H]1[C@H](F)C(=O)N[C@@H]1COc1nccc2cc(C(N)=O)c(OC)cc12 [ZIMLOVISERTIB],% of inhibition,[2],1.6%
same,% of inhibition,[3],-1%
CN(C)CCOc1ccc(-c2nc(-c3ccncc3)c(-c3ccc4c(c3)CC/C4=N\O)[nH]2)cc1,% of control,[4],100%
Cc1cc(F)c(C(=O)Nc2cccc(-c3nncn3C(C)C)n2)cc1-n1cnc(C2CC2)c1,% of control,[5],100%
same,% of control,SRSF protein kinase 1,91%
